Results as given in US20200339691A1, “PROTEINACEOUS MOLECULES AND USES THEREFOR” (priority 2018, published 2020).
Where a SMILES comes first, the peptide text is derived from it. The star is where a group is joined. Myristoyl = CCCCCCCCCCCCCC(=O)*

Assays:
[1] = tested on: PD-L1; assay: PD-L1 in MDA-MB-231 mouse xenografts treated with abraxane or docetaxel; type: in vivo; settings: 35 days, compared with untreated cells
Procedure: The expression of PD-L1 in mouse MDA-MB-231 xenografts treated for 35 days with abraxane (60 mg/kg) or docetaxel (10 mg/kg) was investigated using confocal laser scanning microscopy.
Five-week-old female nude mice were acquired and allowed to acclimatize for one week in the animal facility before experimentation. All experimental procedures were accessed and approved by The Australian National University Animal Experimental Ethics Committee (Ethics ID A2014/30). MDA-MB-231 human breast carcinoma cells were injected subcutaneously into the right mammary gland (2×10^6 cells in 1:1 PBS and BD Matrigel Matrix). Tumors were measured using external calipers and calculated using the modified ellipsoidal formula: […], where a=longest diameter and b=shortest diameter. Tumors were allowed to grow to around 50 mm^3 before commencing treatments (around 15 days). Abraxane (60 mg/kg) or Docetaxel (10 mg/kg) were administered by i.p. injection. Tumors were excised and collected in DMEM supplemented with 2.5% FCS. […] Digested tumors were spun and resuspended in DMEM, 2.5% FCS before being passed through a […] filter and PD-L1 nuclear localization was assessed using immunofluorescence microscopy as described supra.

[2] = tested on: acetylated PD-L1 and p300; assay: Colocalization (PCC(r)) of acetylated PD-L1 and p300 in MDA-MB-231 cells; type: cell-based, human; settings: 50 μm
Procedure: (§1) The effect of P1, P2, P3 and P4 (synthesized in accordance with Example 5) on p300 localization was examined using confocal laser scanning microscopy. […] Cover slips were mounted on glass microscope slides with ProLong Diamond Antifade reagent (Life Technologies). Protein targets were localized by confocal laser scanning microscopy as described above. TNFI and PCC(r) were calculated using ImageJ software as previously described.

[3] = tested on: DMNTI; assay: Immunofluorescence of DMNTI in MDA-MB-231 cells; type: cell-based, human; settings: 50 μM, 72 hours
Procedure: (§2) Cells were treated with 50 μM P1, P2, P3 or P4 (synthesized in accordance with Example 5) or vehicle (water) for 72 hours. […] Confocal laser scanning microscopy was used to measure the […] and TCFI as described above. At least 20 individual cells were analyzed per sample.

[4] = biological target: T1, p300 (Homo sapiens, UniProt Q09472); assay: Immunofluorescence of p300 localization in MDA-MB-231 cells; type: cell-based; settings: 50 μM
T1 construct: endogenous in cells; host or cells: MDA-MB-231
Procedure: as §1

[5] = tested on: EHTM2; assay: Immunofluorescence of EHTM2 in MDA-MB-231 cells; type: cell-based, human; settings: 50 μM, 72 hours
Procedure: as §2

[6] = tested on: PD-L1; assay: Immunofluorescence (confocal) of PD-L1 in MDA-MB-231 cells, Example 6; type: cell-based, human; settings: 50 μM, 72 hours
Procedure: (§3) Confocal laser scanning microscopy was employed to investigate the effect of P1, P2 and P3 (synthesized in accordance with Example 5) on the nuclear expression of PD-L1 and acetylated PD-L1 (PDL1-Ac) (FIG. 9).
(§4) 1×10^4 MDA-MB-231 cells were seeded onto coverslips in 12 well plates with DMEM media overnight. Cells were treated with 50 μM P1, P2, P3 or P4 or vehicle (water) for 72 hours. Treated cells were fixed with 3.7% formaldehyde, and then permeabilised by incubating with 1% Triton X-100 for 20 min. Cells were then probed with a rabbit anti-PD-L1 antibody (Santa Cruz Biotechnology) or rabbit anti-acetylated PD-L1 (generated as described above) and visualized with a donkey anti-rabbit AF 488. Cover slips were mounted on glass microscope slides with ProLong Diamond Antifade reagent (Life Technologies). Protein targets were localized using confocal laser scanning microscopy. Single 0.5 μm sections were obtained using a Leica DMI8 microscope using 100× oil immersion lens running LAX software. The final image was obtained by averaging four sequential images of the same section. Digital images were analyzed using ImageJ software as described above.

[7] = tested on: PD-L1 acetylated at lysine 263; assay: Immunofluorescence (confocal) of acetylated PD-L1 in MDA-MB-231 cells, Example 6; type: cell-based, human; settings: 50 μM, 72 hours
Procedure: as §3, §4

[8] = tested on: SETDB1; assay: Immunofluorescence of SETDB1 in MDA-MB-231 cells; type: cell-based, human; settings: 50 μM, 72 hours
Procedure: as §2

[9] = tested on: MDA-MB-231 cells; type: cell-based, human; settings: for COI (Cell Count) / COI, Live Single Cells (Cell Count) / COI, Single (Cell Count) / Total Cell Count: 50 μM peptide, 48 hours, n = 1; for killing of total MDA-MB-231 cells: not only the CSCs;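 for COI, Live Single Cells (Cell Count): live means Hoechst-negative events among single cells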
Excerpt: (§5) Non-adherent cells were removed during the washing steps.

[10] = tested on: CD44^hiCD24^lo CSCs in MDA-MB-231 cells; assay: FACS analysis of CD44^hiCD24^lo cancer stem cells in MDA-MB-231 cells treated with P1 analogues; type: cell-based, human; settings: 50 μM peptide, 48 hours; for CD44^hiCD24^lo CSCs (%) / COI, Live Single CD44^hiCD24^lo CSCs (Cell Count): n = 1; for Average Inhibition of CSCs (%) / CD44^hiCD24^lo CSCs (%) Repeat 1 / CD44^hiCD24^lo CSCs (%) Repeat 2 / CD44^hiCD24^lo CSCs (%) Repeat 3: n = 3
Procedure: Analogues of P1 (Table 6) were designed and synthesized in accordance with the procedure of Example 5. The ability of these analogues to inhibit cancer stem cells was determined using FACS analysis on MDA-MB-231 cells, which constitutively contain approximately 90% CD44^hiCD24^lo cancer stem cells, treated with the peptides.
as §5

[11] = tested on: CD44^hiCD24^lo CSCs in MCF7 cells; assay: FACS analysis of CD44^hiCD24^lo CSCs in MCF7 cells; type: cell-based, human; settings: 50 μM peptide, 48 hours
Procedure: (§6) P1 Analogues were synthesized in accordance with the procedure of Example 5. 4×10^4 MDA-MB-231 cells or 1×10^4 induced or non-induced MCF7 cells were seeded in a 12 well plate with 1 mL complete media overnight. Induced MCF7 cells were prepared by stimulating cells with PMA/TGF-β and incubating for 12 hours. Cells were treated with 50 μM test peptide (dissolved in water) for 48 hours. Cells were then washed twice with 1 mL PBS and harvested by trypsinisation. Non-adherent cells were removed during the washing steps. Adherent cells were collected, and were subsequently stained with anti-human CD44, CD24 and Hoechst 33342 antibodies on ice for 30 mins. FACS was performed on BD FACS LSRII to measure the percentage of CD44^hiCD24^lo CSCs by dividing CD44^hiCD24^lo events by total live cell counts (Hoechst negative population) (as described in Fillmore and Kuperwasser (2007) Breast Cancer Res, 9: 303). The percentage of viable cells was calculated by dividing total live cell events by total single cells as described previously (Siemann and Keng (1986), Cancer Res, 46: 3556-3559).

[12] = tested on: induced MCF7 cells; assay: FACS CSC inhibition in induced MCF7 cells; type: cell-based, human; settings: induced MCF7 cells (PMA/TGF-β), 50 μM peptide, 48 hours
Procedure: as §6

[13] = tested on: MCF7 cells; settings: MCF7 cells, 50 μM peptide, 48 hours
Procedure: as §6

T1 sequence (Q09472 whole entry): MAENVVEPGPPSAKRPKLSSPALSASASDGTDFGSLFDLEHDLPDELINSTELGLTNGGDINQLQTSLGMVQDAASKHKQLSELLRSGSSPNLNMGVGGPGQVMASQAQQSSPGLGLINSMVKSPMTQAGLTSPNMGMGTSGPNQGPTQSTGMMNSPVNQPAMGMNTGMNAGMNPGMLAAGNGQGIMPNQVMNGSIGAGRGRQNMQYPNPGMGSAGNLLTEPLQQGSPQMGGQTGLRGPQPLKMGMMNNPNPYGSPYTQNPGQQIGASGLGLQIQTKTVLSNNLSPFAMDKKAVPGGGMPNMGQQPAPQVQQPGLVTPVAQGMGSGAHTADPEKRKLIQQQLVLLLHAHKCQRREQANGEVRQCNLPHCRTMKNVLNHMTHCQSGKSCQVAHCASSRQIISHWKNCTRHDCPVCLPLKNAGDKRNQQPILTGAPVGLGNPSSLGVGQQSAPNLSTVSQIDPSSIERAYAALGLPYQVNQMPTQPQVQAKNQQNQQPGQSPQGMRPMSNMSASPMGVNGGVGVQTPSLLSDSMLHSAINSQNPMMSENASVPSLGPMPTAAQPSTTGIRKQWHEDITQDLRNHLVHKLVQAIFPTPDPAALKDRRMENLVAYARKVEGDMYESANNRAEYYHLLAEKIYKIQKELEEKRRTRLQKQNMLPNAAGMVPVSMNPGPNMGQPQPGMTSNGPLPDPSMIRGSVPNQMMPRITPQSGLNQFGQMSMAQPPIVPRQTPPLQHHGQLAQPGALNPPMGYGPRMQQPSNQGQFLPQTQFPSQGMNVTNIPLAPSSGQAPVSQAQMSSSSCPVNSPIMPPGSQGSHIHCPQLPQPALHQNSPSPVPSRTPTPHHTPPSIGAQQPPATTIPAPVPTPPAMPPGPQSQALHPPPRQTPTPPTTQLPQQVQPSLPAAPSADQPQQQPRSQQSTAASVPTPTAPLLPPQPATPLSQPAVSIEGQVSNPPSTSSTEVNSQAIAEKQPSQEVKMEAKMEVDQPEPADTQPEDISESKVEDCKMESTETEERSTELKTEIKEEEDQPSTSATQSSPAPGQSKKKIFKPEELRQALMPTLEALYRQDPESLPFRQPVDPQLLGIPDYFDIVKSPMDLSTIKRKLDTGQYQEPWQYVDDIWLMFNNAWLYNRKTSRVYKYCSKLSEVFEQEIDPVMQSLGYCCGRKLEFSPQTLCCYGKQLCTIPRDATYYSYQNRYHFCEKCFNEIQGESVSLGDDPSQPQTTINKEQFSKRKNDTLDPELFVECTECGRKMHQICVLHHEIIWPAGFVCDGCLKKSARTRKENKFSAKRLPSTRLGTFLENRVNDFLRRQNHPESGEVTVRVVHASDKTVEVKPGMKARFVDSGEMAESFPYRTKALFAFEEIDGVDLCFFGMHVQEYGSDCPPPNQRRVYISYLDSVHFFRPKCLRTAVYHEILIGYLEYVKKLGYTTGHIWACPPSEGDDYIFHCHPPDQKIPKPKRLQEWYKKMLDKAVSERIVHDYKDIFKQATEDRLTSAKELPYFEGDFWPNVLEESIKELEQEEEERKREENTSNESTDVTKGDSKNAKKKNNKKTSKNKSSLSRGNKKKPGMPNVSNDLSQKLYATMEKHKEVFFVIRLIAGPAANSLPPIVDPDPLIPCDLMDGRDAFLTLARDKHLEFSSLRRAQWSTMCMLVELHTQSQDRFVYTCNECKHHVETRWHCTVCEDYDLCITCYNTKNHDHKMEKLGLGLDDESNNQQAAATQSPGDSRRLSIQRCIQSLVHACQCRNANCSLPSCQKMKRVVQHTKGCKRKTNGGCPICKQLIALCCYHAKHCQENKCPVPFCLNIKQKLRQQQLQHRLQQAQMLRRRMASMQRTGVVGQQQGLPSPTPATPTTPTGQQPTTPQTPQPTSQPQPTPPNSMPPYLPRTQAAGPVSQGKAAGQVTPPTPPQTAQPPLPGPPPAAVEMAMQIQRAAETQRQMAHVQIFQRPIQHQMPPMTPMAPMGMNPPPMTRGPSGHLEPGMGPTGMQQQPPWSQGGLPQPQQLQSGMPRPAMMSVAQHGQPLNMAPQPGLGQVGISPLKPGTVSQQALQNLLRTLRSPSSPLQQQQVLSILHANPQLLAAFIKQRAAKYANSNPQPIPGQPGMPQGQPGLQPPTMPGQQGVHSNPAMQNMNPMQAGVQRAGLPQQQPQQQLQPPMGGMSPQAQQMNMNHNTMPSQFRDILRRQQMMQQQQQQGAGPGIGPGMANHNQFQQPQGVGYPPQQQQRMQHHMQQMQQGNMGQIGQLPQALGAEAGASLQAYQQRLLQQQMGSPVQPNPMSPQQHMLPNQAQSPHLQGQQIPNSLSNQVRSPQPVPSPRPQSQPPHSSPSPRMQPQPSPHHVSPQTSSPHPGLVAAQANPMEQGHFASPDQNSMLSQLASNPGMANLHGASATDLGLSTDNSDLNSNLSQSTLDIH

CC(=O)O[C@@]12CO[C@@H]1C[C@H](O)[C@@]1(C)C(=O)[C@H](O)C3=C(C)[C@@H](OC(=O)[C@H](O)[C@@H](NC(=O)OC(C)(C)C)c4ccccc4)C[C@@](O)([C@@H](OC(=O)c4ccccc4)[C@H]21)C3(C)C [docetaxel]
PD-L1 in the nucleus of surviving, resistant xenograft cells [1]: higher levels of PD-L1 in the nucleus

CCCCCCCCCCCCCC(=O)N[C@@H](Cc1ccccc1)C(=O)N[C@@H](CCCNC(=N)N)C(=O)N[C@@H](CC(C)C)C(=O)N[C@@H](CCCNC(=N)N)C(=O)N[C@@H](CCCCN)C(=O)NCC(=O)N[C@@H](CCCNC(=N)N)C(=O)N[C@@H](CCSC)C(=O)N[C@@H](CCSC)C(=O)N[C@@H](CC(=O)O)C(=O)N[C@H](C(=O)N[C@@H](CCCCN)C(=O)N[C@@H](CCCCN)C(N)=O)C(C)C [Peptide P4, Myristoyl-FRLRKGRMMDVKK-NH2] (Myristoyl-FRLRKGRMMDVKK-NH2)
colocalization of acetylated PD-L1 and p300 [2]: no effect | expression / nuclear localization of DMNTI [3]: inhibited | p300 nuclear expression [4]: slightly decreased | expression / localization of EHTM2 [5]: did not have a significant effect | localization of PD-L1 [6]: no effect | localization of acetylated PD-L1 [7]: no effect | expression / nuclear localization of SETDB1 [8]: inhibited | COI (Cell Count) [9]: 4910 | COI, Live Single Cells (Cell Count) [9]: 3777 | COI, Single (Cell Count) [9]: 3903 | Total Cell Count [9]: 7923 | CD44^hiCD24^lo CSCs (%) [10]: 87.66% | COI, Live Single CD44^hiCD24^lo CSCs (Cell Count) [10]: 3311

CCCCCCCCCCCCCC(=O)N[C@H](C(=O)N[C@@H](Cc1ccccc1)C(=O)N[C@H](C(=O)N[C@@H](Cc1ccccc1)C(=O)N[C@@H](CCCNC(=N)N)C(=O)N[C@@H](CC(C)C)C(=O)N[C@@H](CCCNC(=N)N)C(=O)N[C@@H](CCCCN)C(=O)NCC(=O)N[C@@H](CCCNC(=N)N)C(=O)N[C@@H](C)C(=O)N[C@@H](CCSC)C(=O)N[C@@H](CC(=O)O)C(=O)N[C@H](C(=O)N[C@@H](CCCCN)C(=O)N[C@@H](CCCCN)C(N)=O)C(C)C)[C@@H](C)CC)[C@@H](C)O [Peptide 2815312, Myristoyl-TFIFRLRKGRAMDVKK-NH2] (Myristoyl-TFIFRLRKGRAMDVKK-NH2)
CD44^hiCD24^lo CSC % [11]: 3.28% | COI/Single Cells/Live/CD44^hiCD24^lo CSCs Count [11]: 142 | CSC inhibition (%) [12]: 53.47% | COI Count [13]: 5333 | COI/Single Cell Count [13]: 4517 | COI/Single Cells/Live Count [13]: 4331 | Total Count [13]: 10000 | COI (Cell Count) [9]: 9 | COI, Live Single Cells (Cell Count) [9]: 6 | COI, Single (Cell Count) [9]: 7 | Total Cell Count [9]: 2993 | killing of total MDA-MB-231 cells [9]: killed the majority of the total MDA-MB-231 cells | Inhibition of CSCs (%) Repeat 1 [10]: 100.00% | Inhibition of CSCs (%) Repeat 2 [10]: 100.00% | Inhibition of CSCs (%) Repeat 3 [10]: 100.00% | CD44^hiCD24^lo CSCs (%) [10]: 0.00% | COI, Live Single CD44^hiCD24^lo CSCs (Cell Count) [10]: 0 | Average Inhibition of CSCs (%) [10]: 100.00% | CD44^hiCD24^lo CSCs (%) Repeat 1 [10]: 0.00% | CD44^hiCD24^lo CSCs (%) Repeat 2 [10]: 0.00% | CD44^hiCD24^lo CSCs (%) Repeat 3 [10]: 0.00%

CCCCCCCCCCCCCC(=O)N[C@@H](CC(C)C)C(=O)N[C@H](C(=O)N[C@@H](Cc1ccccc1)C(=O)N[C@H](C(=O)N[C@@H](Cc1ccccc1)C(=O)N[C@@H](CCCNC(=N)N)C(=O)N[C@@H](CC(C)C)C(=O)N[C@@H](CCCNC(=N)N)C(=O)N[C@@H](CCCCN)C(=O)NCC(=O)N[C@@H](CCCNC(=N)N)C(=O)N[C@@H](CCSC)C(=O)N[C@@H](CCSC)C(=O)N[C@@H](CC(=O)O)C(=O)N[C@@H](CCCCN)C(=O)N[C@@H](CCCCN)C(=O)N[C@@H](CCCCN)C(N)=O)[C@@H](C)CC)[C@@H](C)O [Peptide 2853839, Myristoyl-LTFIFRLRKGRMMDKKK-NH2] (Myristoyl-LTFIFRLRKGRMMDKKK-NH2)
CD44^hiCD24^lo CSC % [11]: 1.14% | COI/Single Cells/Live/CD44^hiCD24^lo CSCs Count [11]: 25 | CSC inhibition (%) [12]: 83.87% | COI Count [13]: 3128 | COI/Single Cell Count [13]: 2294 | COI/Single Cells/Live Count [13]: 2200 | Total Count [13]: 10000 | COI (Cell Count) [9]: 12 | COI, Live Single Cells (Cell Count) [9]: 2 | COI, Single (Cell Count) [9]: 10 | Total Cell Count [9]: 619 | killing of total MDA-MB-231 cells [9]: killed the majority of the total MDA-MB-231 cells | Inhibition of CSCs (%) Repeat 1 [10]: 100.00% | Inhibition of CSCs (%) Repeat 2 [10]: 100.00% | Inhibition of CSCs (%) Repeat 3 [10]: 100.00% | CD44^hiCD24^lo CSCs (%) [10]: 0.00% | COI, Live Single CD44^hiCD24^lo CSCs (Cell Count) [10]: 0 | Average Inhibition of CSCs (%) [10]: 100.00% | CD44^hiCD24^lo CSCs (%) Repeat 1 [10]: 0.00% | CD44^hiCD24^lo CSCs (%) Repeat 2 [10]: 0.00% | CD44^hiCD24^lo CSCs (%) Repeat 3 [10]: 0.00%
